Patent US20240294529A1, “6H-IMIDAZO[1,2-A]PYRROLO[2,3-E]PYRIDINE DERIVATIVES FOR USE IN THERAPY” (SANOFI, priority 2021, published 2024)

Assays:
hNur77 = target: T1, hNur77 (Homo sapiens, UniProt P22736); assay: Activity on HEK-Nur77 modulation (Gal4-DBD luciferase reporter in stable HEK293 cells); format: cell-based; conditions: 24 hours with compound
T1 construct: The pFR-Luc (Gal4 UAS luciferase) reporter sits in the same cells, and expression is induced by doxycycline
Method: Stable HEK293 cells expressing Gal4-DBD-FL-NOT, -hNur77, -hNOR1 and Pfr-Luc were obtained by limit dilution. HEK cells were grown in 75 cm^2 flask in DMEM high glucose 30-2002™ containing 10% calf serum, hygromycin at a content of 250 μg/ml, doxycyclin at a content of 2 μg/ml (to induce expression) and 0.4 mg/ml of penicillin. After one week in culture, cells were harvested by trypsinization then plated onto 96 well dishes at the density of 20,000 cell per well in 75 μl of culture medium. After 24 hours compounds were added (25 μl per well) at different concentration for further 24 hours. The medium was removed and measurement was performed by adding 50 μl of Steadyglo (Promega, E2510) with 50 μl PBS per well for 15 minutes and plates were read using microplate luminescent reader.

Nurr1 = target: T2, Nurr1 (Mus musculus, UniProt Q06219); assay: Activity on neuroblastomas cell lines - Nurr1 modulation (N2A cells, NBRE8x luciferase reporter); format: cell-based; conditions: N2A cells stably transfected with NBRE8x-luciferase, 24 hours with compound; read-out: EC50 activity, Nurr1 modulation in N2A neuroblastoma cells
T2 construct: N2A cells obtained from ATCC were stably transfected with NBRE8x (50-AAGGTCA-30) in tandem coupled with luciferase reporter gene; host or cells: N2A neuroblastoma cells
T2 sequence (Q06219 whole entry): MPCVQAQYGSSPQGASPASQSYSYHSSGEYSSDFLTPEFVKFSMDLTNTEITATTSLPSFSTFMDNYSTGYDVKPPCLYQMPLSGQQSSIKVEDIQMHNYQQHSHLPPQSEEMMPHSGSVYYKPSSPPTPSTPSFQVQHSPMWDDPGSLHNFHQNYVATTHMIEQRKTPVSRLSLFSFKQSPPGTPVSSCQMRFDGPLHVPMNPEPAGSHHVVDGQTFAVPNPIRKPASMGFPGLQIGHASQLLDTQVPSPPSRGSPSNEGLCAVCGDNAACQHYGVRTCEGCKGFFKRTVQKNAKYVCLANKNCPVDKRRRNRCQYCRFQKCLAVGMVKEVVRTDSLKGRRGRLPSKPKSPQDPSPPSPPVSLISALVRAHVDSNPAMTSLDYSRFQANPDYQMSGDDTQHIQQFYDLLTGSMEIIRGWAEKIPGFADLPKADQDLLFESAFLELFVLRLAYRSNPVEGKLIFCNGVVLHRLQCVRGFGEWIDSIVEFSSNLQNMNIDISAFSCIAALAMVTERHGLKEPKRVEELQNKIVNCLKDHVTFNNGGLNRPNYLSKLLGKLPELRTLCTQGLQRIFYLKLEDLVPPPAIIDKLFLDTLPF
Method: N2A cells obtained from ATCC were stably transfected with NBRE8x (50-AAGGTCA-30) in tandem coupled with luciferase reporter gene. Each NBRE sequence was separated with 5 nucleotides. N2A were grown in 75 cm^2 flask in DMEM containing 10% calf serum, 4.5 g/L glucose and 0.4 mg/ml geneticin. After one week in culture cells were harvested by trypsinization (0.25%, 30 minutes) then plated onto 96 well dishes at the density of 60,000 cell per well in 75 μl of DMEM without phenol red containing 4.5 g/l glucose, 10% lipid free serum from Hyclone. After 24 hours compounds were added (25 μl/well) at different concentration for further 24 hours. Measurement is performed by adding 100 μl of Steadylite per well for 30 minutes and plates are read using microplate […] reader.

T1 sequence (P22736 360-598 limits assumed): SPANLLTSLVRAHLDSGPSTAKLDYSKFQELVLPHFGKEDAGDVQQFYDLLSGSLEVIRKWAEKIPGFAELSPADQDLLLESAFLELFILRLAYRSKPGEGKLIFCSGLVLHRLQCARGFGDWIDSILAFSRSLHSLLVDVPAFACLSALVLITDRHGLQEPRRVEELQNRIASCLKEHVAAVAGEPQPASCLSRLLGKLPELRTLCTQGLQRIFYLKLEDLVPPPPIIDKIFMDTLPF

IC50 (hNur77) | EC50 (Nurr1) | melting point | SMILES
10000 nM | 0.2 nM | 252 °C | Clc1ccc(-c2nc3ccc4[nH]ccc4n3c2Cl)cc1 [compound of formula (1), 1-Chloro-2-(4-chlorophenyl)-6H-imidazo[1,2-a]pyrrolo[2,3-e]pyridine]
300 nM | 0.03 nM | – | Clc1ccc(-c2cn3c(ccc4[nH]ccc43)n2)cc1 [compound of formula (2), 2-(4-Chlorophenyl)-6H-imidazo[1,2-a]pyrrolo[2,3-e]pyridine]
